Data from patent publication US20260364184A1, “COMPOUND BASED ON OXOISOINDOLINYL-SUBSTITUTED TETRAHYDROPYRIMIDINE-DIONE AND USE THEREOF” (GLUETACS THERAPEUTICS (SHANGHAI) CO., LTD., priority 2023, published 2026).

molecular target: T1, IRAK4 (Homo sapiens, UniProt Q9NWZ3); assay: Western blot degradation of IRAK4; type: cell-based; conditions: hPBMC Cell; 24 hours
T1 construct: expression of target proteins in cells; endogenous in cells
T1 sequence (Q9NWZ3 1-460): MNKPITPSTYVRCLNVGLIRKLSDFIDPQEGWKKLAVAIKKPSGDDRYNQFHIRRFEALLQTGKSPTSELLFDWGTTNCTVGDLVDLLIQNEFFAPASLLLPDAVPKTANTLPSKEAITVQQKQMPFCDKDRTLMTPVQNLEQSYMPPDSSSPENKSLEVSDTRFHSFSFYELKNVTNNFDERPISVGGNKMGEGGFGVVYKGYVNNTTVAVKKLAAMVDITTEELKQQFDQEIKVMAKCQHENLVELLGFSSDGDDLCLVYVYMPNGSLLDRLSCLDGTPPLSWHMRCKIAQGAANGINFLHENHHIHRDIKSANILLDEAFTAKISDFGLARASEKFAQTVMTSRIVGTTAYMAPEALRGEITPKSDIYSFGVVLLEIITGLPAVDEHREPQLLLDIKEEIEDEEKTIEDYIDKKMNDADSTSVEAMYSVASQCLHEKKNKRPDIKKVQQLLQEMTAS
Description: Conventional Western blot assay was performed to evaluate the effects of the compounds of the present disclosure on the expression of target proteins in cells.
(1) Cell Seeding and Protein Harvesting: The selected cells were processed according to the cell seeding procedure and protein harvesting procedure in Table II-2.
(2) To the collected supernatant, 5×SDS sample loading buffer was added, followed by denaturation at 95 °C for 5 minutes. The denatured samples were then separated by SDS-PAGE electrophoresis on a polyacrylamide gel. Proteins were transferred to a nitrocellulose membrane (0.45 μm NC membrane), blocked with blocking buffer at room temperature for 1 hour, and subjected to antibody incubation and development procedures according to the antibody manufacturer's instructions (Cell Signaling Technology).
Half-Maximal Degradation Concentration value (the drug concentration required for degrading proteins by 50%, abbreviated as DC50) reads method: comparing the grayscale values of Western blot bands from drug-treated samples with those from blank DMSO-treated controls, and identifying the drug concentration range at which the grayscale value is half that of the DMSO-treated control bands.
DC50 values can be calculated using ImageJ software to measure grayscale values of Western blot bands from drug-treated samples. The concentration-response curve is fitted to estimate the drug concentration corresponding to half the grayscale value.
Target protein remaining (%) refers to the percentage of target protein remaining in cells after treatment with protein degrader compounds.
Calculation method for target protein remaining (%): Use ImageJ software to measure grayscale values of Western blot bands from drug (protein degrader)-treated samples. The grayscale value of drug-treated bands is divided by that of internal control protein bands, and the resulting quotient is normalized to obtain the relative percentage of remaining target protein after protein degrader treatment.
Target protein degradation rate (%)=1−target protein remaining (%).

Degradation of substrate protein IRAK4 (substrate protein remaining %)	Structure (SMILES)
A (0%≤substrate protein remaining %≤80%)	CC(C)Nc1cc(-n2ccc3cc(C#N)cnc32)ncc1C(=O)NC1CCN(Cc2ccc3c(c2)C(=O)N(N2CCC(=O)NC2=O)C3=O)CC1 [GT-05326, 6-(5-cyano-1H-pyrrolo[2,3-b]pyridin-1-yl)-N-(1-((2-(2,4-dioxotetrahydropyrimidin-1(2H)-yl)-1,3-dioxoisoindolin-5-yl)methyl)piperidin-4-yl)-4-((isopropyl)amino) nicotinamide]
A (0%≤substrate protein remaining %≤80%)	CC(C)Nc1cc(-n2ccc3cc(C#N)cnc32)ncc1C(=O)NC1CCN(CC2CCN(c3ccc4c(c3)C(=O)N(N3CCC(=O)NC3=O)C4=O)CC2)CC1 [GT-05813, 6-(5-cyano-1H-pyrrolo[2,3-b]pyridin-1-yl)-N-(1-((1-(2-(2,4-dioxotetrahydropyrimidin-1(2H)-yl)-1,3-dioxoisoindolin-5-yl)piperidin-4-yl)methyl)piperidin-4-yl)-4-(isopropylamino) nicotinamide]
A (0%≤substrate protein remaining %≤80%)	CC(C)Nc1cc(-n2ccc3cc(C#N)cnc32)ncc1C(=O)NC1CCN(CC2CCN(c3cccc4c3C(=O)N(N3CCC(=O)NC3=O)C4=O)CC2)CC1 [GT-05814, 6-(5-cyano-1H-pyrrolo[2,3-b]pyridin-1-yl)-N-(1-((1-(2-(2,4-dioxotetrahydropyrimidin-1(2H)-yl)-1,3-dioxoisoindolin-4-yl)piperidin-4-yl)methyl)piperidin-4-yl)-4-(isopropylamino) nicotinamide]
A (0%≤substrate protein remaining %≤80%)	COc1cc2nn(C3CCN(CC4CCN(c5cccc6c5C(=O)N(N5CCC(=O)NC5=O)C6=O)CC4)CC3)cc2cc1NC(=O)c1cccc(C(F)(F)F)c1 [GT-05815, N-(2-(1-((1-(2-(2,4-dioxotetrahydropyrimidin-1(2H)-yl)-1,3-dioxoisoindolin-4-yl)piperidin-4-yl)methyl)piperidin-4-yl)-6-methoxy-2H-indazol-5-yl)-3-(trifluoromethyl)benzamide]
A (0%≤substrate protein remaining %≤80%)	O=C1CCN(N2C(=O)c3ccc(N4CC5CC(C4)N5C[C@H]4CC[C@H](n5cc(NC(=O)c6cnn7ccc(N8C[C@H]9C[C@@H]8CO9)nc67)c(C(F)F)n5)CC4)cc3C2=O)C(=O)N1 [GT-05822, 5-((1R,4R)-2-oxa-5-azabicyclo[2.2.1]heptan-5-yl)-N-(3-(difluoromethyl)-1-((1r,4R)-4-((3-(2-(2,4-dioxotetrahydropyrimidin-1(2H)-yl)-1,3-dioxoisoindolin-5-yl)-3,6-diazabicyclo[3.1.1]heptan-6-yl)methyl)cyclohexyl)-1H-pyrazol-4-yl)pyrazolo[1,5-a]pyrimidine-3-carboxamide]
A (0%≤substrate protein remaining %≤80%)	O=C1CCN(N2C(=O)c3ccc(N4CCN(C[C@H]5CC[C@H](n6cc(NC(=O)c7cnn8ccc(N9C[C@H]%10C[C@@H]9CO%10)nc78)c(C(F)F)n6)CC5)CC4)c(F)c3C2=O)C(=O)N1 [GT-05827, 5-((1R,4R)-2-oxa-5-azabicyclo[2.2.1]heptan-5-yl)-N-(3-(difluoromethyl)-1-((1r,4R)-4-((4-(2-(2,4-dioxotetrahydropyrimidin-1(2H)-yl)-4-fluoro-1,3-dioxoisoindolin-5-yl)piperazin-1-yl)methyl)cyclohexyl)-1H-pyrazol-4-yl)pyrazolo[1,5-a]pyrimidine-3-carboxamide]
A (0%≤substrate protein remaining %≤80%)	COc1cc2nn([C@H]3CC[C@H](CN4CCN(c5ccc6c(c5)C(=O)N(N5CCC(=O)NC5=O)C6=O)CC4)CC3)cc2cc1NC(=O)c1cccc(C(F)(F)F)n1 [GT-08647, N-(2-((1r,4r)-4-((4-(2-(2,4-dioxotetrahydropyrimidin-1(2H)-yl)-1,3-dioxoisoindolin-5-yl)piperazin-1-yl)methyl)cyclohexyl)-6-methoxy-2H-indazol-5-yl)-6-(trifluoromethyl) picolinamide]
A (0%≤substrate protein remaining %≤80%)	COc1cc2nn([C@H]3CC[C@H](CN4C5CCC4CN(c4ccc6c(c4)C(=O)N(N4CCC(=O)NC4=O)C6=O)C5)CC3)cc2cc1NC(=O)c1cccc(C(F)(F)F)n1 [GT-08654, N-(2-((1r,4r)-4-((3-(2-(2,4-dioxotetrahydropyrimidin-1(2H)-yl)-1,3-dioxoisoindolin-5-yl)-3,8-diazabicyclo[3.2.1]octan-8-yl)methyl)cyclohexyl)-6-methoxy-2H-indazol-5-yl)-6-(trifluoromethyl) picolinamide]
A (0%≤substrate protein remaining %≤80%)	COc1cc2nn([C@H]3CC[C@H](CN4CCN(c5cccc6c5C(=O)N(N5CCC(=O)NC5=O)C6=O)CC4)CC3)cc2cc1NC(=O)c1cccc(C(F)(F)F)n1 [GT-08655, N-(2-((1r,4r)-4-((4-(2-(2,4-dioxotetrahydropyrimidin-1(2H)-yl)-1,3-dioxoisoindolin-4-yl)piperazin-1-yl)methyl)cyclohexyl)-6-methoxy-2H-indazol-5-yl)-6-(trifluoromethyl) picolinamide]
A (0%≤substrate protein remaining %≤80%)	COc1cc2nn([C@H]3CC[C@H](CN4CCN(c5ccc6c(c5F)C(=O)N(N5CCC(=O)NC5=O)C6=O)CC4)CC3)cc2cc1NC(=O)c1cccc(C(F)(F)F)n1 [GT-08656, N-(2-((1r,4r)-4-((4-(2-(2,4-dioxotetrahydropyrimidin-1(2H)-yl)-4-fluoro-1,3-dioxoisoindolin-5-yl)piperazin-1-yl)methyl)cyclohexyl)-6-methoxy-2H-indazol-5-yl)-6-(trifluoromethyl) picolinamide]
A (0%≤substrate protein remaining %≤80%)	COc1cc2nn([C@H]3CC[C@H](CN4CCN(c5cc(F)c6c(c5)C(=O)N(N5CCC(=O)NC5=O)C6=O)CC4)CC3)cc2cc1NC(=O)c1cccc(C(F)(F)F)n1 [GT-08657, N-(2-((1r,4r)-4-((4-(2-(2,4-dioxotetrahydropyrimidin-1(2H)-yl)-7-fluoro-1,3-dioxoisoindolin-5-yl)piperazin-1-yl)methyl)cyclohexyl)-6-methoxy-2H-indazol-5-yl)-6-(trifluoromethyl) picolinamide]
A (0%≤substrate protein remaining %≤80%)	COc1cc2nn([C@H]3CC[C@H](CN4CCN(C5CCN(c6ccc7c(c6)C(=O)N(N6CCC(=O)NC6=O)C7=O)CC5)CC4)CC3)cc2cc1NC(=O)c1cccc(C(F)(F)F)n1 [GT-08658, N-(2-((1r,4r)-4-((4-(1-(2-(2,4-dioxotetrahydropyrimidin-1(2H)-yl)-1,3-dioxoisoindolin-5-yl)piperidin-4-yl)piperazin-1-yl)methyl)cyclohexyl)-6-methoxy-2H-indazol-5-yl)-6-(trifluoromethyl) picolinamide]
A (0%≤substrate protein remaining %≤80%)	COc1cc2nn([C@H]3CC[C@H](CN4CC5CCC4CN5c4ccc5c(c4)C(=O)N(N4CCC(=O)NC4=O)C5=O)CC3)cc2cc1NC(=O)c1cccc(C(F)(F)F)n1 (some centres unmarked) [GT-08660, N-(2-((1r,4r)-4-((5-(2-(2,4-dioxotetrahydropyrimidin-1(2H)-yl)-1,3-dioxoisoindolin-5-yl)-2,5-diazabicyclo[2.2.2]octan-2-yl)methyl)cyclohexyl)-6-methoxy-2H-indazol-5-yl)-6-(trifluoromethyl) picolinamide]
A (0%≤substrate protein remaining %≤80%)	COc1cc2nn([C@H]3CC[C@H](CN4C[C@@H]5C[C@H]4CN5c4ccc5c(c4)C(=O)N(N4CCC(=O)NC4=O)C5=O)CC3)cc2cc1NC(=O)c1cccc(C(F)(F)F)c1 [GT-08662, N-(2-((1S,4r)-4-(((1S,4S)-5-(2-(2,4-dioxotetrahydropyrimidin-1(2H)-yl)-1,3-dioxoisoindolin-5-yl)-2,5-diazabicyclo[2.2.1]heptan-2-yl)methyl)cyclohexyl)-6-methoxy-2H-indazol-5-yl)-3-(trifluoromethyl)benzamide]
